Test results as given in patent US8853230B2, “Inhibitors of JAK” (Portola Pharmaceuticals, Inc., priority 2009, dated 2014).

Key:
Format in all cases: biochemical
JAK3 = target: T1, JAK3 (Homo sapiens, UniProt P52333); assay: Z'-LYTE kinase assay, JAK3 tyrosine phosphorylation activity
T1 construct: 5 μl of catalytic domain recombinant Kinase enzyme+Tyr peptide substrate (Invitrogen, Calif.); purchased Invitrogen
Summary of the method: (§1)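 FRET-based Z′-LYTE format with recombinant catalytic-domain kinases and Tyr6 peptide substrate; compounds in 1% DMSO final, duplicate wells. Kinase reaction with ATP runs 1 h at room temperature, then protease development 1 h; fluorescence read at ex 400, em 445/520 nm. IC50 from 4-parameter logistic fit of percent phosphorylation versus uninhibited.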

JAK1 = target: T2, JAK1 (Homo sapiens, UniProt P23458); assay: Z'-LYTE kinase assay, JAK1 tyrosine phosphorylation activity; conditions: read-out: JAK 1 IC50
T2 construct: 5 μl of catalytic domain recombinant Kinase enzyme+Tyr peptide substrate (Invitrogen, Calif.); purchased Invitrogen
Summary of the method: as §1

JAK2 = target: T3, JAK2 (Homo sapiens, UniProt O60674); assay: Z'-LYTE kinase assay, JAK2 tyrosine phosphorylation activity
T3 construct: 5 μl of catalytic domain recombinant Kinase enzyme+Tyr peptide substrate (Invitrogen, Calif.); purchased Invitrogen
Summary of the method: as §1

TYK2 = target: T4, TYK2 (Homo sapiens, UniProt P29597); assay: Z'-LYTE kinase assay, TYK2 tyrosine phosphorylation activity
T4 construct: 5 μl of catalytic domain recombinant Kinase enzyme+Tyr peptide substrate (Invitrogen, Calif.); purchased Invitrogen
T4 sequence (P29597 897-1176 limits assumed): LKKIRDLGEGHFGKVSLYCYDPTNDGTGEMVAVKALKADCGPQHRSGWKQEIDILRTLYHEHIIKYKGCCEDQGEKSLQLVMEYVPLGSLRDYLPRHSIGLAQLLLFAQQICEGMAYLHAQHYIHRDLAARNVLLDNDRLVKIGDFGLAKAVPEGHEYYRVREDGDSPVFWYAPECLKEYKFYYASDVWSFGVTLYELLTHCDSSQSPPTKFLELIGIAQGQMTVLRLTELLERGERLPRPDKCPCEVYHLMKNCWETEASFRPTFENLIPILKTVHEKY
Summary of the method: as §1

T2 sequence (P23458 875-1153 limits assumed): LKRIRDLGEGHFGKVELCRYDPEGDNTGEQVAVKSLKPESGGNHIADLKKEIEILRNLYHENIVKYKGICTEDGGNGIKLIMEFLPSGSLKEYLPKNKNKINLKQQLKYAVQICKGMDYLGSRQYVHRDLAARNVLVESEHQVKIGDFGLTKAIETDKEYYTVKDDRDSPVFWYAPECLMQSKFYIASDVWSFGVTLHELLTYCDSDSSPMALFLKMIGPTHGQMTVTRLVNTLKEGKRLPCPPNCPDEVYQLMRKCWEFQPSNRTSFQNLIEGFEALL
T1 sequence (P52333 822-1111 limits assumed): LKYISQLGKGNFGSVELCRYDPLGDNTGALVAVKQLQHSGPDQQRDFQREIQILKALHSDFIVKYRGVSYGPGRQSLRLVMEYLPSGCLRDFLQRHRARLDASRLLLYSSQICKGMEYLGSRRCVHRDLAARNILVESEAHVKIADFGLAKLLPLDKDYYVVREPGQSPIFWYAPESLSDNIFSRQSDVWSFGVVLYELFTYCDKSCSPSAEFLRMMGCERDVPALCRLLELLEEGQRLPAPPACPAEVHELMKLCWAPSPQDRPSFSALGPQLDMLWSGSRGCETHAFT
T3 sequence (O60674 849-1124 limits assumed): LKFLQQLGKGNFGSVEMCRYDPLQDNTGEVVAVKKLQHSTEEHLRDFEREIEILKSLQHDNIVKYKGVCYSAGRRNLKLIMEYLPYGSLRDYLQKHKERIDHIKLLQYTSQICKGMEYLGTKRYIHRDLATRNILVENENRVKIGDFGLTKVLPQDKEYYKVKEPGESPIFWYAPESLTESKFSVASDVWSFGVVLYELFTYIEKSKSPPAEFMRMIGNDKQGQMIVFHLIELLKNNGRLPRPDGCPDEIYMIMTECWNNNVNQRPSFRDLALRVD

Compound | IC50 (JAK3) [µM] | IC50 (JAK1) [µM] | IC50 (JAK2) [µM] | IC50 (TYK2) [µM]
CC(=O)Nc1cc(Nc2ncc(C(N)=O)c(Nc3cccc4c3cnn4C)n2)ccc1OCCN1CCCC1 [Example 256, 2-(3-acetamido-4-(2-(pyrrolidin-1-yl)ethoxy)phenylamino)-4-(1-methyl-1H-indazol-4-ylamino)pyrimidine-5-carboxamide] | 0.001 to 0.01 | 0.01 to 0.1 | 0.001 to 0.01 | 0.01 to 0.1
CC(=O)Nc1cccc(Nc2cc(NCc3cccc(Cl)c3)c(C(N)=O)cn2)c1 [Example 337, 6-(3-acetamidophenylamino)-4-(3-chlorobenzylamino)nicotinamide] | 0.01 to 0.1 | 0.1 to 1 | 0.1 to 1 | 0.1 to 1
CC(=O)Nc1cccc(Nc2cc(N[C@H]3CCc4ccccc43)c(C(N)=O)cn2)c1 [Example 335, (S)-6-(3-acetamidophenylamino)-4-(2,3-dihydro-1H-inden-1-ylamino)nicotinamide] | 0.01 to 0.1 | 0.1 to 1 | > 1 | 0.01 to 0.1
CC(C)CNc1nc(Nc2ccc(Cl)c(NC(=O)N3CCCC3)c2)ncc1C(N)=O [Example 236, 2-(4-chloro-3-(pyrrolidine-1-carboxamido)phenylamino)-4-(isobutylamino)pyrimidine-5-carboxamide] | 0.01 to 0.1 | 0.01 to 0.1 | 0.01 to 0.1 | 0.01 to 0.1
CC(=O)Nc1cccc(Nc2cc(NCC3CC3)c(C(N)=O)cn2)c1 [Example 329, 6-(3-acetamidophenylamino)-4-(cyclopropylmethylamino)nicotinamide] | 0.1 to 1 | > 1 | 0.1 to 1 | 0.1 to 1
CCn1ccc2c(Nc3nc(Nc4cccc(NC(C)=O)c4)ncc3C(N)=O)cccc21 [Example 185, 2-(3-acetamidophenylamino)-4-(1-ethyl-1H-indol-4-ylamino)pyrimidine-5-carboxamide] | 0.001 to 0.01 | 0.01 to 0.1 | 0.01 to 0.1 | 0.001 to 0.01
CC(=O)Nc1cccc(Nc2ncc(C(N)=O)c(Nc3cccc4nsnc34)n2)c1 [Example 192, 2-(3-acetamidophenylamino)-4-(benzo[c][1,2,5]thiadiazo-4-ylamino)pyrimidine-5-carboxamide] | 0.001 to 0.01 | > 1 | 0.01 to 0.1 | 0.01 to 0.1
CC(=O)Nc1cccc(Nc2ncc(C(N)=O)c(N[C@@H](c3ccccc3)C3CC3)n2)c1 [Example 152, (R)-2-(3-acetamidophenylamino)-4-(cyclopropyl(phenyl)methylamino)pyrimidine-5-carboxamide] | 0.01 to 0.1 | 0.1 to 1 | 0.1 to 1 | 0.1 to 1
C[C@@H](Nc1nc(Nc2ccc(Cl)c(NC(=O)N3CCOCC3)c2)ncc1C(N)=O)c1ccccc1 [Example 183, (R)—N-(5-(5-carbamoyl-4-(1-phenylethylamino)pyrimidin-2-ylamino)-2-chlorophenyl)morpholine-4-carboxamide] | 0.001 to 0.01 | 0.1 to 1 | 0.01 to 0.1 | 0.01 to 0.1
CC(=O)Nc1cccc(Nc2cc(NCc3cccc(F)c3F)c(C(N)=O)cn2)c1 [Example 336, 6-(3-acetamidophenylamino)-4-(2,3-difluorobenzylamino)nicotinamide] | 0.001 to 0.01 | 0.1 to 1 | 0.1 to 1 | 0.1 to 1
CC(=O)Nc1cccc(Nc2ncc(C(N)=O)c(NCc3ccc(F)cc3)n2)c1 [Example 103, 2-(3-acetamidophenylamino)-4-(4-fluorobenzylamino)pyrimidine-5-carboxamide] | 0.01 to 0.1 | 0.1 to 1 | 0.01 to 0.1 | 0.01 to 0.1
CN(C)C(=O)Nc1ccc(F)c(Nc2ncc(C(N)=O)c(NCc3ccccc3)n2)c1 [Example 201, 4-(benzylamino)-2-(5-(3,3-dimethylureido)-2-fluorophenylamino)pyrimidine-5-carboxamide] | 0.01 to 0.1 | > 1 | > 1 | 0.1 to 1
COC[C@@H]1CCCN1C(=O)Nc1cccc(Nc2ncc(C(N)=O)c(N[C@H](C)c3ccccc3)n2)c1 [Example 138, 2-(3-((S)-2-(methoxymethyl)pyrrolidine-1-carboxamido)phenylamino)-4-((R)-1-phenylethylamino)pyrimidine-5-carboxamide] | 0.001 to 0.01 | 0.1 to 1 | 0.01 to 0.1 | 0.01 to 0.1
CC(=O)Nc1cccc(Nc2ncc(C(N)=O)c(NCc3cccc(Cl)c3)n2)c1 [Example 101, 2-(3-acetamidophenylamino)-4-(3-chlorobenzylamino)pyrimidine-5-carboxamide] | 0.001 to 0.01 | 0.01 to 0.1 | 0.001 to 0.01 | 0.01 to 0.1
COCC(=O)Nc1cc(Nc2ncc(C(N)=O)c(N[C@H](C)c3ccccc3)n2)ccc1Cl [Example 109, (R)-2-(4-chloro-3-(2-methoxyacetamido)phenylamino)-4-(1-phenylethylamino)pyrimidine-5-carboxamide] | 0.01 to 0.1 | 0.1 to 1 | 0.1 to 1 | 0.1 to 1
CC(=O)Nc1cccc(Nc2ncc(C(N)=O)c(NCc3ccc4c(c3)OCO4)n2)c1 [Example 99, 2-(3-acetamidophenylamino)-4-(benzo[d][1,3]dioxol-5-ylmethylamino)pyrimidine-5-carboxamide] | 0.01 to 0.1 | 0.1 to 1 | 0.01 to 0.1 | 0.01 to 0.1
COCC(=O)N(c1cccc(Nc2ncc(C(N)=O)c(NCc3ccccc3)n2)c1)C1CC1 [Example 150, 4-(benzylamino)-2-(3-(N-cyclopropyl-2-methoxyacetamido)phenylamino)pyrimidine-5-carboxamide] | 0.1 to 1 | > 1 | > 1 | 0.1 to 1
CC(=O)Nc1cccc(Nc2ncc(C(N)=O)c(Nc3cccc4c3cnn4C)n2)c1 [Example 191, 2-(3-acetamidophenylamino)-4-(1-methyl-1H-indazol-4-ylamino)pyrimidine-5-carboxamide] | 0.001 to 0.01 | 0.01 to 0.1 | 0.01 to 0.1 | 0.01 to 0.1
CC(=O)Nc1cccc(Nc2ncc(C(N)=O)c(N[C@@H]3CCc4ccccc43)n2)c1 [Example 97, (R)-2-(3-acetamidophenylamino)-4-(2,3-dihydro-1H-inden-1-ylamino)pyrimidine-5-carboxamide] | 0.001 to 0.01 | 0.01 to 0.1 | 0.01 to 0.1 | 0.001 to 0.01
CC(=O)Nc1cccc(Nc2ncc(C(N)=O)c(NCC3CCN(C(=O)OC(C)(C)C)C3)n2)c1 (stereo not drawn) [Example 225, tert-butyl 3-((2-(3-acetamidophenylamino)-5-carbamoylpyrimidin-4-ylamino)methyl)pyrrolidine-1-carboxylate] | 0.01 to 0.1 | 0.1 to 1 | 0.1 to 1 | 0.1 to 1
NC(=O)c1cnc(Nc2cccc(NC(=O)[C@@H]3CCCO3)c2)nc1NCc1ccccc1 [Example 206, (S)-4-(benzylamino)-2-(3-(tetrahydrofuran-2-carboxamido)phenylamino)pyrimidine-5-carboxamide] | 0.001 to 0.01 | 0.01 to 0.1 | 0.01 to 0.1 | 0.001 to 0.01
CC(=O)Nc1cccc(Nc2ncc(C(N)=O)c(N[C@@H](C)C(C)C)n2)c1 [Example 247, (S)-2-(3-acetamidophenylamino)-4-(3-methylbutan-2-ylamino)pyrimidine-5-carboxamide] | 0.01 to 0.1 | 0.01 to 0.1 | 0.01 to 0.1 | 0.01 to 0.1
CC(=O)Nc1cccc(Nc2ncc(C(N)=O)c(Nc3cccc4c3ccn4C)n2)c1 [Example 184, 2-(3-acetamidophenylamino)-4-(1-methyl-1H-indol-4-ylamino)pyrimidine-5-carboxamide] | 0.001 to 0.01 | 0.001 to 0.01 | 0.001 to 0.01 | 0.001 to 0.01
CC(=O)Nc1cc(Nc2ncc(C(N)=O)c(Nc3cccc4nsnc34)n2)ccc1OCCN1CCCC1 [Example 227, 2-(3-acetamido-4-(2-(pyrrolidin-1-yl)ethoxy)phenylamino)-4-(benzo[c][1,2,5]thiadiazo-4-ylamino)pyrimidine-5-carboxamide] | 0.001 to 0.01 | 0.01 to 0.1 | 0.001 to 0.01 | 0.01 to 0.1
NC(=O)c1cnc(Nc2cccc(NC(=O)N3CCCC3)c2)nc1NCC(F)(F)F [Example 136, 2-(3-(pyrrolidine-1-carboxamido)phenylamino)-4-(2,2,2-trifluoroethylamino)pyrimidine-5-carboxamide] | 0.01 to 0.1 | 0.01 to 0.1 | 0.01 to 0.1 | 0.01 to 0.1
C[C@@H](Nc1nc(Nc2ccc(Cl)c(NC(=O)N3CCCCC3)c2)ncc1C(N)=O)c1ccccc1 [Example 205, (R)-2-(4-chloro-3-(piperidine-1-carboxamido)phenylamino)-4-(1-phenylethylamino)pyrimidine-5-carboxamide] | 0.01 to 0.1 | > 1 | 0.1 to 1 | 0.1 to 1
CC(C)CNc1cc(Nc2cccc(NC(=O)N3CCCC3)c2)ncc1C(N)=O [Example 324, 4-(isobutylamino)-6-(3-(pyrrolidine-1-carboxamido)phenylamino)nicotinamide] | 0.01 to 0.1 | 0.1 to 1 | 0.1 to 1 | 0.1 to 1
